Tests used:
Test in all cases: Kinase profiling
Type in all cases: binding
CLK3 = CLK3 (Homo sapiens, UniProt P49761); conditions: read-out: % Ctrl @ 1000 nM
[1] = target: TYK2 (JH1domain-catalytic) (Homo sapiens, UniProt P29597); conditions: read-out: % Ctrl @ 1000 nM
MLK2 = target: T1, MLK2 (Homo sapiens, UniProt Q02779); conditions: read-out: % Ctrl @ 1000 nM
T1 construct: T7 phage fusion (stated for most kinases of the panel only); made in house; host or cells: T7 phage in E. coli (BL21-derived) or HEK-293 cells

CSNK2A1 = CSNK2A1 (Homo sapiens, UniProt P68400); conditions: read-out: % Ctrl @ 1000 nM
ITK = ITK (Homo sapiens, UniProt Q08881); conditions: read-out: % Ctrl @ 1000 nM
ITK, sequence (Q08881 whole entry): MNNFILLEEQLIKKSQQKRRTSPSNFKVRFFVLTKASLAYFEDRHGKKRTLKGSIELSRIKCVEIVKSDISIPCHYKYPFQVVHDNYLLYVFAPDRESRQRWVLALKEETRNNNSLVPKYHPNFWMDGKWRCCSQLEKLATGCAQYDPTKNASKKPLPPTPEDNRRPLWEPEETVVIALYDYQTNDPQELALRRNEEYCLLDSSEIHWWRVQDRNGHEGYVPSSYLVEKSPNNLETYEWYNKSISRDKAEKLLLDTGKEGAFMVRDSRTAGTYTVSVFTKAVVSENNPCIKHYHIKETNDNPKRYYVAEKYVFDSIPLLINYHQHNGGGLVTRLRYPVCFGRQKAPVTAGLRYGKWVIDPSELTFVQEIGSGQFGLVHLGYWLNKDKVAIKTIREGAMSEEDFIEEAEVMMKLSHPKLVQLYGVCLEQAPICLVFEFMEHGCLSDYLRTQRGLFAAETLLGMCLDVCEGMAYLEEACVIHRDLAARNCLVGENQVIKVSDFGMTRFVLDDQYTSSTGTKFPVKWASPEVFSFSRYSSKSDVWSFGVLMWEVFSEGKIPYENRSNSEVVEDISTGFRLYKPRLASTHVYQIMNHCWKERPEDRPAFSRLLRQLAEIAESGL

PRKD2 = PRKD2 (Homo sapiens, UniProt Q9BZL6); conditions: read-out: % Ctrl @ 1000 nM
CAMK4 = CAMK4 (Homo sapiens, UniProt Q16566); conditions: read-out: % Ctrl @ 1000 nM
EPHA1 = EPHA1 (Homo sapiens, UniProt P21709); conditions: read-out: % Ctrl @ 1000 nM
EPHA1, sequence (P21709 26-976): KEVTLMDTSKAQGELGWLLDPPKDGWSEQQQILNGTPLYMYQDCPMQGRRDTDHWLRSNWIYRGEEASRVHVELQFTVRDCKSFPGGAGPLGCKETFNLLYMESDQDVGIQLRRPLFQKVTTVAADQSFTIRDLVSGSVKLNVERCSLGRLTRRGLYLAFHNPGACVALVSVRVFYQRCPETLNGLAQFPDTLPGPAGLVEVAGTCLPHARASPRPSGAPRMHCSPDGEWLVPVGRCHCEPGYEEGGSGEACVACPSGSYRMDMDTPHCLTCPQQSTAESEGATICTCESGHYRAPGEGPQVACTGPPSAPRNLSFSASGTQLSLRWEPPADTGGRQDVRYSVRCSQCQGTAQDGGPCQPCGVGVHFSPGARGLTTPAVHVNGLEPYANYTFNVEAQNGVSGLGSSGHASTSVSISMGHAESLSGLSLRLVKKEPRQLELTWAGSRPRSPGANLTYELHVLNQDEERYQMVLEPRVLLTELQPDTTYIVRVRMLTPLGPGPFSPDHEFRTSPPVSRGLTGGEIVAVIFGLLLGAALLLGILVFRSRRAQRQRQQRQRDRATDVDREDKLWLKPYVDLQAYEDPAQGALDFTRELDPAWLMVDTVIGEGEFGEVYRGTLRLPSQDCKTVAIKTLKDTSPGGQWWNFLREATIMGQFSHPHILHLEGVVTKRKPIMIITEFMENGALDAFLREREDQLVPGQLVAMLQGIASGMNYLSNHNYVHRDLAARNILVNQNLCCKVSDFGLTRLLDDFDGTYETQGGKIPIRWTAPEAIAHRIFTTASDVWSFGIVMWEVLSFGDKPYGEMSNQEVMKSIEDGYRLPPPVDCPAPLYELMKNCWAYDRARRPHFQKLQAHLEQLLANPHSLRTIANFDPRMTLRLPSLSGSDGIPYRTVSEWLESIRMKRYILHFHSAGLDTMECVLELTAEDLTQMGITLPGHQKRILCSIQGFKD

GRK3 = GRK3 (Homo sapiens, UniProt P35626); conditions: read-out: % Ctrl @ 1000 nM
GRK3, sequence (P35626 whole entry): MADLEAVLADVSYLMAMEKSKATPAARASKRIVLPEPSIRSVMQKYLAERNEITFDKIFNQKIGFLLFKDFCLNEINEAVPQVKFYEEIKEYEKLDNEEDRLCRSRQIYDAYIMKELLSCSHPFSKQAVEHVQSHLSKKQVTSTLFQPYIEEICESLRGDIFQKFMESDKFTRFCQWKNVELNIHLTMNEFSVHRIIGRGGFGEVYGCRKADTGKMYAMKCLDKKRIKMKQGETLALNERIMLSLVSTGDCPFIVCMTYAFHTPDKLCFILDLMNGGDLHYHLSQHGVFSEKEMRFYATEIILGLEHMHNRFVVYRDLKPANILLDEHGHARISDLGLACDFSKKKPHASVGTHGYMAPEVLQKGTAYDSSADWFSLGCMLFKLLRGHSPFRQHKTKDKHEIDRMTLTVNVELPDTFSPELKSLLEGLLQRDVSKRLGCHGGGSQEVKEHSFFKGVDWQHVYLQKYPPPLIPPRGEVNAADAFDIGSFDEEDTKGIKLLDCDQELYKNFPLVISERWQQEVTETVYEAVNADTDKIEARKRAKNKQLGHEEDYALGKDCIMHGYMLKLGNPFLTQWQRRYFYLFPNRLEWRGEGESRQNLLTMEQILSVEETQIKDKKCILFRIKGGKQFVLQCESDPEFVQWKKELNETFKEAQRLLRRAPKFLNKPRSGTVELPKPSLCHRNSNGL

[2] = target: ABL1 (H396P)-phosphorylated (Homo sapiens, UniProt P00519, H396P); conditions: read-out: % Ctrl @ 1000 nM
LYN = LYN (Homo sapiens, UniProt P07948); conditions: read-out: % Ctrl @ 1000 nM
MLK3 = target: T2, MLK3 (Homo sapiens, UniProt Q16584); conditions: read-out: % Ctrl @ 1000 nM
T2 construct: T7 phage fusion (stated for most kinases of the panel only); made in house; host or cells: T7 phage in E. coli (BL21-derived) or HEK-293 cells

CAMK2D = CAMK2D (Homo sapiens, UniProt Q13557); conditions: read-out: % Ctrl @ 1000 nM
FLT3 (ITD, D835V) = system: FLT3 (ITD, D835V)
MRCKA = target: T3, MRCKA (Homo sapiens, UniProt Q5VT25); conditions: read-out: % Ctrl @ 1000 nM
T3 construct: T7 phage fusion (stated for most kinases of the panel only); made in house; host or cells: T7 phage in E. coli (BL21-derived) or HEK-293 cells

SBK1 = SBK1 (Homo sapiens, UniProt Q52WX2); conditions: read-out: % Ctrl @ 1000 nM
CSNK1G3 = CSNK1G3 (Homo sapiens, UniProt Q9Y6M4); conditions: read-out: % Ctrl @ 1000 nM
PIK3C2G = PIK3C2G (Homo sapiens, UniProt O75747); conditions: read-out: % Ctrl @ 1000 nM
MEK6 = target: T4, MEK6 (Homo sapiens, UniProt P52564); conditions: read-out: % Ctrl @ 1000 nM
T4 construct: T7 phage fusion (stated for most kinases of the panel only); made in house; host or cells: T7 phage in E. coli (BL21-derived) or HEK-293 cells

[3] = target: EGFR (L747-E749del, A750P) (Homo sapiens, UniProt P00533, A750P/DEL747-749); conditions: read-out: % Ctrl @ 1000 nM
WNK4 = WNK4 (Homo sapiens, UniProt Q96J92); conditions: read-out: % Ctrl @ 1000 nM
WNK4, sequence (Q96J92 whole entry): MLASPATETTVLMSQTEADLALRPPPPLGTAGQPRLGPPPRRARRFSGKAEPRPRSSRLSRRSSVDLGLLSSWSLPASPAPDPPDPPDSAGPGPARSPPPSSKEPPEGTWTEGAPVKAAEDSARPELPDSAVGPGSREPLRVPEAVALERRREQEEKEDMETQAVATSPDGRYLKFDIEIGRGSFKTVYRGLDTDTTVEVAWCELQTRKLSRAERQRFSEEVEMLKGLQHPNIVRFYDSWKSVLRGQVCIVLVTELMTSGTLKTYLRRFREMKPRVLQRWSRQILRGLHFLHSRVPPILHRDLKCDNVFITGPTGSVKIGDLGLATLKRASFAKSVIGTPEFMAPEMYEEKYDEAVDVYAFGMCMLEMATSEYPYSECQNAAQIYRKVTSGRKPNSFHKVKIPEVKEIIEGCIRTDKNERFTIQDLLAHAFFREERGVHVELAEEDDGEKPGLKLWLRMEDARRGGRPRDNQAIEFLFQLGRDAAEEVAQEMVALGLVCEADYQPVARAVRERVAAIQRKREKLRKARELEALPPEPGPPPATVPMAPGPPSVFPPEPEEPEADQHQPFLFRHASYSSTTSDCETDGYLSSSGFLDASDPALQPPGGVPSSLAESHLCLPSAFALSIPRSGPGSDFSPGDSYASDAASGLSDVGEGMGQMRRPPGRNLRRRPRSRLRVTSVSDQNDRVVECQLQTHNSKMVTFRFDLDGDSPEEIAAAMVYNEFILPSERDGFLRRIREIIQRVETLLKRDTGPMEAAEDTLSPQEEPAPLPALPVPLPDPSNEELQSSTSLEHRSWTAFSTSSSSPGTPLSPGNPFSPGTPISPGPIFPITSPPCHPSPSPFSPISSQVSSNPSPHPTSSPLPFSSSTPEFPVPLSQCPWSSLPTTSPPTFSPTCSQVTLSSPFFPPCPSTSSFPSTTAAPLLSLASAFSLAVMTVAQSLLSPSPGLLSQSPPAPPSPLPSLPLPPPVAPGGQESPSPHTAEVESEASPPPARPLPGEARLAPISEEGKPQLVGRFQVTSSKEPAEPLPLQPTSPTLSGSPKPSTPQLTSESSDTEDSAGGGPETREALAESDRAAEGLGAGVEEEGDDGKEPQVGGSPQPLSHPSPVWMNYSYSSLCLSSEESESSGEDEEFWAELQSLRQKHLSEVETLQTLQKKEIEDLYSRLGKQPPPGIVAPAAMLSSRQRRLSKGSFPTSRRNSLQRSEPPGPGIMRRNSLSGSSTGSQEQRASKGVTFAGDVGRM

PKN2 = PKN2 (Homo sapiens, UniProt Q16513); conditions: read-out: % Ctrl @ 1000 nM
CSNK1G2 = CSNK1G2 (Homo sapiens, UniProt P78368); conditions: read-out: % Ctrl @ 1000 nM
CSNK1G2, sequence (P78368 whole entry): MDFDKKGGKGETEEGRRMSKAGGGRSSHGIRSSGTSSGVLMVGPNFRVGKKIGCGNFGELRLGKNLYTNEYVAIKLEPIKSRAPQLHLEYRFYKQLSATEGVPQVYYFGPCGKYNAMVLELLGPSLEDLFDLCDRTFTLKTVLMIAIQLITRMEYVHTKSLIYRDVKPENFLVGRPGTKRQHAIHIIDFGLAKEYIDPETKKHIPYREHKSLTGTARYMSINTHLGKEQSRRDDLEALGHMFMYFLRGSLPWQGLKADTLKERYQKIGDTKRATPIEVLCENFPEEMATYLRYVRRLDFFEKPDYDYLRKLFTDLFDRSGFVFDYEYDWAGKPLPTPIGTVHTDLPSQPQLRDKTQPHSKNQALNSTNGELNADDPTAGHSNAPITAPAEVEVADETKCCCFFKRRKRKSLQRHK

NDR1 = target: T5, NDR1 (Homo sapiens, UniProt Q15208); conditions: read-out: % Ctrl @ 1000 nM
T5 construct: T7 phage fusion (said for most assays); made in house
T5 sequence (Q15208 whole entry, the tested form may be a part): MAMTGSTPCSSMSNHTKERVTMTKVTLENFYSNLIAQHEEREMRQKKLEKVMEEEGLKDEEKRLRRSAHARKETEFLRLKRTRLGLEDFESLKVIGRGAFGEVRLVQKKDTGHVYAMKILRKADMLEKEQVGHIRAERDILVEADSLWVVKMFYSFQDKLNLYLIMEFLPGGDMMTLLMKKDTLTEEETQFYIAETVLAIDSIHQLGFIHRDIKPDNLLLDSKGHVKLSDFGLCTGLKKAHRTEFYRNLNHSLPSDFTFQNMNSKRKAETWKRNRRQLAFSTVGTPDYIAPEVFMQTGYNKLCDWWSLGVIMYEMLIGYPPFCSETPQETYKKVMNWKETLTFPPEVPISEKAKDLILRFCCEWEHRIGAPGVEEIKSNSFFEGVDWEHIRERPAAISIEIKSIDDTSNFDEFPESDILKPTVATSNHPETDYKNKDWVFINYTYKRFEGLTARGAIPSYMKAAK

MYO3A = target: T6, MYO3A (Homo sapiens, UniProt Q8NEV4); conditions: read-out: % Ctrl @ 1000 nM
T6 construct: T7 phage fusion (said for most assays); made in house

PRKCE = PRKCE (Homo sapiens, UniProt Q02156); conditions: read-out: % Ctrl @ 1000 nM
PIP5K1A = PIP5K1A (Homo sapiens, UniProt Q99755); conditions: read-out: % Ctrl @ 1000 nM
[4] = target: JAK1 (JH1domain-catalytic) (Homo sapiens, UniProt P23458); conditions: read-out: % Ctrl @ 1000 nM
EGFR (L861Q) = EGFR (L861Q) (Homo sapiens, UniProt P00533, L861Q); conditions: read-out: % Ctrl @ 1000 nM
AKT3 = AKT3 (Homo sapiens, UniProt Q9Y243); conditions: read-out: % Ctrl @ 1000 nM
CHEK1 = CHEK1 (Homo sapiens, UniProt O14757); conditions: read-out: % Ctrl @ 1000 nM
YES = YES (Homo sapiens, UniProt P07947); conditions: read-out: % Ctrl @ 1000 nM
YES, sequence (P07947 whole entry): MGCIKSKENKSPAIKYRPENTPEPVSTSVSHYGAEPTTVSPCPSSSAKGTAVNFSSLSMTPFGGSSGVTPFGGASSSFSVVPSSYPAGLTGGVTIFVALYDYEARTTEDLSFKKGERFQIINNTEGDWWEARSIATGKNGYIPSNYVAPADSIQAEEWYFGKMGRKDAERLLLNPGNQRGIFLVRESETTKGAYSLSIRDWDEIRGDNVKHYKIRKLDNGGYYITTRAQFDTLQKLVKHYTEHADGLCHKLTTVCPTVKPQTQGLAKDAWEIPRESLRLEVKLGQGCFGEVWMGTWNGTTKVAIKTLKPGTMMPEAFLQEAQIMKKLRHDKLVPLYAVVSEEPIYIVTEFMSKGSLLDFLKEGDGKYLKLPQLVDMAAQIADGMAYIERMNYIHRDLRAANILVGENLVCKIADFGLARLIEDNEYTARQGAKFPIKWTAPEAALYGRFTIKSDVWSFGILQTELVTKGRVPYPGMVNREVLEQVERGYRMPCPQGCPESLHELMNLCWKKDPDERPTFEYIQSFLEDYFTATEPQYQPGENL

TSSK3 = TSSK3 (Homo sapiens, UniProt Q96PN8); conditions: read-out: % Ctrl @ 1000 nM
IRAK4 = IRAK4 (Homo sapiens, UniProt Q9NWZ3); conditions: read-out: % Ctrl @ 1000 nM
NEK6 = target: T7, NEK6 (Homo sapiens, UniProt Q9HC98); conditions: read-out: % Ctrl @ 1000 nM
T7 construct: T7 phage fusion (said for most assays); made in house

PIM1 = PIM1 (Homo sapiens, UniProt P11309); conditions: read-out: % Ctrl @ 1000 nM
PRKCI = PRKCI (Homo sapiens, UniProt P41743); conditions: read-out: % Ctrl @ 1000 nM
PRKCQ = PRKCQ (Homo sapiens, UniProt Q04759); conditions: read-out: % Ctrl @ 1000 nM
SLK = SLK (Homo sapiens, UniProt Q9H2G2); conditions: read-out: % Ctrl @ 1000 nM

`Cc1cc(Oc2cc(NC(=O)C3CC3)ncn2)ccc1NC(=O)Nc1ccc(Cl)c(C(F)(F)F)c1` [CBT-102] showed a remaining activity at 1 µM (CLK3) of 100%, a remaining activity at 1 µM [1] of 5.6% and a remaining activity at 1 µM (MLK2) of 99%. It also gave a remaining activity at 1 µM (CSNK2A1) of 100%, a remaining activity at 1 µM (ITK) of 90% and a remaining activity at 1 µM (PRKD2) of 100%. For the same compound, the remaining activity at 1 µM (CAMK4) was 100%, the remaining activity at 1 µM (EPHA1) was 45% and the remaining activity at 1 µM (GRK3) was 97%. For the same compound, the remaining activity at 1 µM [2] was 83%, the remaining activity at 1 µM (LYN) was 20% and the remaining activity at 1 µM (MLK3) was 92%. For the same compound, the remaining activity at 1 µM (CAMK2D) was 93%, the “% Ctrl @ 1000 nM” value (FLT3 (ITD, D835V)) was 98% and the remaining activity at 1 µM (MRCKA) was 91%. The remaining activity at 1 µM (SBK1) was 92%, the remaining activity at 1 µM (CSNK1G3) was 96% and the remaining activity at 1 µM (PIK3C2G) was 100%. The remaining activity at 1 µM (MEK6) was 96%, the remaining activity at 1 µM [3] was 80% and the remaining activity at 1 µM (WNK4) was 89%. It also gave a remaining activity at 1 µM (PKN2) of 100%, a remaining activity at 1 µM (CSNK1G2) of 94% and a remaining activity at 1 µM (NDR1) of 94%. The remaining activity at 1 µM (MYO3A) was 81%, the remaining activity at 1 µM (PRKCE) was 99% and the remaining activity at 1 µM (PIP5K1A) was 100%. For the same compound, the remaining activity at 1 µM [4] was 78%, the remaining activity at 1 µM (EGFR (L861Q)) was 56% and the remaining activity at 1 µM (AKT3) was 97%. For the same compound, the remaining activity at 1 µM (CHEK1) was 100%, the remaining activity at 1 µM (YES) was 55% and the remaining activity at 1 µM (TSSK3) was 100%. The remaining activity at 1 µM (IRAK4) was 93%, the remaining activity at 1 µM (NEK6) was 100% and the remaining activity at 1 µM (PIM1) was 95%. For the same compound, the remaining activity at 1 µM (PRKCI) was 74%, the remaining activity at 1 µM (PRKCQ) was 95% and the remaining activity at 1 µM (SLK) was 1.4%.

— patent US20220088016A1, “CANCER TREATMENT USING MULTI-TARGETED KINASE INHIBITOR IN COMBINATION OF PROTEIN KINASE BIOMARKERS” (ZHEJIANG CROWNMAB BIOTECH CO. LTD., priority 2019, published 2022)
